From the supplement of paper PMC10307832

What was measured:
Test in all cases: relative viability (nuclei count vs DMSO), 5 days (fraction); higher = more cells survive
IU1-47 + Navitoclax = compound: CC1=CC(=C(N1C2=CC=C(C=C2)Cl)C)C(=O)CN3CCCCC3 [IU1-47] + CC1(C)CCC(c2ccc(Cl)cc2)=C(CN2CCN(c3ccc(C(=O)NS(=O)(=O)c4ccc(N[C@H](CCN5CCOCC5)CSc5ccccc5)c(S(=O)(=O)C(F)(F)F)c4)cc3)CC2)C1 [Navitoclax] (partner 0.5 µM)
In short: (§1)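 Each reported value is a median over duplicate plates. It expresses relative viability: treated-well nuclei count divided by vehicle-well nuclei count. Lung cancer cell lines in 1536-well plates were dosed by pin tool a day after seeding, alone with one drug or with a fixed anchor-drug dose plus five library-drug doses (not always all listed) in √10 steps, and nuclei were counted after 5 days.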

IU1-47 + Foretinib = compound: CC1=CC(=C(N1C2=CC=C(C=C2)Cl)C)C(=O)CN3CCCCC3 [IU1-47] + COc1cc2c(Oc3ccc(NC(=O)C4(C(=O)Nc5ccc(F)cc5)CC4)cc3F)ccnc2cc1OCCCN1CCOCC1 [Foretinib] (partner 0.25 µM)
In short: as §1

FG-4592 = compound: Cc1nc(C(=O)NCC(=O)O)c(O)c2ccc(Oc3ccccc3)cc12 [FG-4592]
In short: (§2)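 After an overnight hold at 37 °C, lung cancer cell lines in 1536-well plates were pinned with five library-drug doses (not always all listed), each √10 from the next, on vehicle-anchored plates. The cells stayed 5 days without fresh medium, then a one-step fix, permeabilisation and Hoechst stain preceded 4× imaging and MetaXpress nuclear counts. A plate passed only with control CV under 25% and at least one doubling. Viability is the median, over plates, of treated-well nuclei relative to vehicle-well nuclei.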

IU1-47 = compound: CC1=CC(=C(N1C2=CC=C(C=C2)Cl)C)C(=O)CN3CCCCC3 [IU1-47]
In short: as §2

Cell Line | relative viability (IU1-47 + Navitoclax; first compound 0.08 µM) | relative viability (IU1-47 + Navitoclax; first compound 0.253 µM) | relative viability (IU1-47 + Navitoclax; first compound 0.8 µM) | relative viability (IU1-47 + Navitoclax; first compound 8 µM) | relative viability (IU1-47 + Foretinib; first compound 0.08 µM) | relative viability (IU1-47 + Foretinib; first compound 0.253 µM) | relative viability (IU1-47 + Foretinib; first compound 0.8 µM) | relative viability (IU1-47 + Foretinib; first compound 8 µM) | relative viability (FG-4592; 0.08 µM) | relative viability (FG-4592; 0.253 µM) | relative viability (FG-4592; 0.8 µM) | relative viability (FG-4592; 2.53 µM) | relative viability (FG-4592; 8 µM) | relative viability (IU1-47; 0.08 µM) | relative viability (IU1-47; 0.253 µM) | relative viability (IU1-47; 0.8 µM) | relative viability (IU1-47; 8 µM) | relative viability (IU1-47 + Navitoclax; first compound 2.53 µM) | relative viability (IU1-47 + Foretinib; first compound 2.53 µM) | relative viability (IU1-47; 2.53 µM)
EPLC-272H | 1.19 | 1.07 | 1.07 | 1.12 | 0.659 | 0.775 | 0.764 | 0.606 | 0.886 | 0.777 | 0.7 | 0.901 | 0.889 | 1.02 | 1.05 | 0.933 | 0.806 | – | – | –
EBC-1 | 0.487 | 0.479 | 0.393 | 0.299 | 0.0995 | 0.107 | 0.0951 | 0.102 | 1.07 | 0.977 | 0.95 | 0.94 | 0.953 | 1.06 | 0.954 | 1.05 | 0.867 | 0.413 | 0.111 | 0.921
NCI-H1915 | 0.822 | 0.805 | 0.828 | 0.833 | 1.12 | 1.12 | 1.15 | 1.1 | 0.951 | 0.959 | 0.918 | 0.955 | 1.02 | 0.995 | 0.989 | 1.04 | 0.905 | – | – | –
NCI-H596 | 1.05 | 0.961 | 0.982 | 1.05 | 0.893 | 0.82 | 0.806 | 0.761 | 0.794 | 0.955 | – | 1.03 | 0.651 | 1.19 | 0.775 | 1.14 | 0.801 | 0.869 | 0.87 | 1.03
NCI-H322M | 1.31 | 1.21 | 1.1 | 1.23 | 1.07 | 1.03 | 0.882 | 1.03 | 0.812 | 0.907 | 0.844 | 0.897 | 0.89 | 0.972 | 1.02 | 0.919 | 0.925 | 1.27 | 0.965 | 0.922
NCI-H1299 | 1.11 | 1.13 | 1.05 | 1.03 | 1.1 | 1.11 | 1.09 | 1.01 | 0.974 | 0.98 | 0.982 | 0.99 | 1.02 | 0.995 | 1.05 | 1.06 | 1.02 | 1.05 | 1.18 | 1
NCI-H2228 | 0.871 | 0.97 | 1.69 | 0.832 | 1.14 | 1.05 | 0.975 | 0.75 | 0.905 | 0.868 | 0.899 | 1.02 | 0.644 | 1.04 | 1.14 | 1.06 | 0.709 | 0.659 | 0.827 | 0.986
IA-LM | 0.758 | 1.08 | 0.739 | 0.81 | 1.02 | 1.12 | 0.936 | 1 | 0.913 | 0.933 | 0.894 | 0.859 | 0.764 | 1.11 | 1.08 | 1.08 | 0.884 | 1.05 | 1.17 | 1.01
NCI-H647 | 1.31 | 1.3 | 1.19 | 1.04 | 1.12 | 1.36 | – | 1.34 | 0.916 | 0.94 | 0.837 | 0.933 | 0.727 | 1.07 | 1.05 | 0.843 | 0.923 | 1.26 | 1.25 | 0.985
SK-MES-1 | 1.21 | 1.34 | 1.27 | 1.17 | 0.999 | 1.05 | 0.838 | 0.921 | 0.991 | 0.939 | 0.969 | 0.981 | 0.983 | 1.12 | 1.22 | 1.02 | 1.06 | 1.29 | 0.844 | 1.1
NCI-H2170 | 0.74 | 0.734 | 0.684 | 0.577 | 1.14 | 1.08 | 1.03 | 1.24 | 0.911 | 0.975 | 0.851 | 0.921 | 0.718 | 1.24 | 1.15 | 1.07 | 1.04 | 0.525 | 0.994 | 0.996
NCI-H2085 | 1.15 | 1.22 | 1.13 | 1.01 | 0.922 | 1.19 | 0.926 | 0.767 | 1 | 0.955 | 0.934 | 0.965 | 1.02 | 1.05 | 0.998 | 0.973 | 0.954 | 1.19 | 0.922 | 1.01
SW 1573 | 1.03 | 1.14 | 1.04 | 1.09 | 1.03 | 0.965 | 1.11 | 1.02 | 0.936 | 0.79 | 0.909 | 0.994 | 0.896 | 1.03 | 1.05 | 0.958 | 0.934 | 0.893 | 0.749 | 0.857
NCI-H727 | 0.454 | – | 0.597 | 0.391 | 1.05 | 0.988 | 0.871 | 0.987 | 0.88 | 0.921 | 0.894 | 0.944 | 0.992 | 1.03 | 0.938 | 1.12 | 0.867 | 0.413 | 1.02 | 0.755
NCI-H441 | 0.574 | 0.497 | 0.655 | 0.548 | 0.873 | 1.15 | 0.986 | 0.864 | 1.05 | 0.928 | 0.98 | 0.756 | 0.787 | 1.24 | 1.16 | 1.07 | 1.07 | 0.684 | 1.13 | 1.01
